Patent US20100234385A1 (Kaneka Corporation, priority 2006, published 2010)

Experiments:
[1] = Sawabe et al. 2004, cited from earlier work
[2] = BH4 concentration in the brain after oral administration for 3 consecutive days to hph-1 mice; settings: 5 mg/kg oral, 3 consecutive days at 24-hour intervals, 2.5 hours after final dosing, versus non-dose group
Method: The mice were biopsied 2.5 hours after the final dosing, their brains were excised and BH4 levels were quantified in the same manner as Example 1.

melanocytes = experiment: Inhibitory effect on melanocytes in vitro; type: cell-based

| intracerebral BH4 concentrations [2] | Compound | time of sharp peak of BH4 after administration [1] [h] | time until BH4 concentration returns to the original level ([1]; after administration of BH4) | effects on melanocytes in vitro (melanocytes) |
| --- | --- | --- | --- | --- |
| changes are not observed | C[C@H](O)[C@H](O)[C@H]1CNc2nc(N)[nH]c(=O)c2N1 [BH4, L-erythro-5,6,7,8-tetrahydrobiopterin] | 0.5 to 1 | about 4 hours | – |
| – | 6-(L-erythro-1,2-dihydroxypropyl)-pterin or 7-(L-erythro-1,2-dihydroxypropyl)-pterin [biopterin] | – | – | inhibitory effects |
